Key:
Assay type in all cases: in vivo
[1] = tested on: acetic acid-induced colitis in male SD (CD) IGS rats; experiment: Acetic acid-induced colitis model; conditions: rat, 0.3 or 3 mg/kg/day, 24 hours after colitis induction
Description: Male SD (CD) IGS rats (7 weeks old) were anesthetized with sodium pentobarbital. Colitis was induced by intracolonic instillation of 0.25 mL of 5% acetic acid with a disposable sonde for oral administration for mouse, which is attached to 1 mL syringe (Terumo). The sonde was inserted to 5 cm from anus and acetic acid was infused for 10 seconds. After the removal of the sonde, the anus was plugged for 1 minute. Then the colon was washed with approximate 10 mL of physiological saline with a disposable sonde for oral administration for rat, which was attached to 50 mL syringe (Terumo), and the sonde was inserted to 8 cm from anus.
The test compound or vehicle was administered to animals before 30 minutes and after 8 hours of the colitis induction, at each time half of a dairy dose was administered.
After 24 hours of colitis induction, all colons which from anus to cecum, were removed, the content was washed away with saline solution. After trimming of the washed colon, the colon was cut at 9 cm from anus, wiped out the solution, and weighed with electronic measure. Then the injured area (mm^2) of dissected colon was measured by image analysis.
N-hydroxy-5-hydroxy-2 (S)-methyl-4(S)—(4-phenoxybenzoyl)aminopentanamide (compound (1)) was used as a test compound. Compound (1) was administered to animals at doses of 0.3 or 3 mg/kg/day. […]

[2] = tested on: rat; experiment: Single oral administration toxicity to rat
Description: The toxicity of the compounds of the present invention is very low and therefore, the compounds may be considered safe for pharmaceutical use. For example, a minimum of lethal dose of the compound (2) by single oral administration to rat was 2000 mg/kg.

[3] = tested on: TNBS-induced colitis in male SD (CD) IGS rats; experiment: TNBS-induced colitis model; conditions: rat, 1, 3 and 10 mg/kg/day, three days after TNBS induction
Description: Male SD (CD) IGS rats (7 weeks old) were anesthetized with sodium pentobarbital. A flexible sonde for oral administration was inserted to 8 cm from the anus. Colitis was induced by intracolonic instillation of 50 mg of 2,4,6-trinitrobenzenesulfonic acid (TNBS) dissolved in 0.25 mL of 20% ethanol, and the anus was plugged and leaved for 2 hours. Test compound was administered at 30 minutes before and 8 hours after the TNBS induction, since the next day of TNBS induction they were administered half of a dairy dose at each time, twice daily in the morning and the evening. Three days later the animals were sacrificed with bleeding under ether anesthetization. All colons were removed, the contents was washed out with saline solution, and then measured the length. After the trimming of the colons, 9 cm segment from the anus was obtained, the water was removed on the paper, and the wet weight was measured with electric scale.
N-hydroxy-5-ethoxymethyloxy-2 (S)-methyl-4(S)— (4-phenoxylbenzoil)aminopentanamide (compound (2)) was used as a test compound. FIG. 3 and FIG. 4 show the effects of compound (2) at the doses of 1, 3 and 10 mg/kg/day on the length and the wet weight of colons respectively.

Compound | injured area ([1]; FIG. 1) | increase in intestine edema (wet weight of colon) ([1]; FIG. 2) | minimum of lethal dose [2] [mg/kg] | shrinkage of colon (length of all colons) ([3]; FIG. 3) | increase in intestine edema (wet weight of colon) ([3]; FIG. 4)
C[C@@H](C[C@@H](CO)NC(=O)c1ccc(Oc2ccccc2)cc1)C(=O)NO [compound (1), N-hydroxy-5-hydroxy-2 (S)-methyl-4(S)—(4-phenoxybenzoyl)aminopentanamide] | suppressive tendency to the injured area | suppressed the increase in intestine edema | – | – | –
CCOCOC[C@H](C[C@H](C)C(=O)NO)NC(=O)c1ccc(Oc2ccccc2)cc1 [compound (2), N-hydroxy-5-ethoxymethyloxy-2 (S)-methyl-4(S)— (4-phenoxylbenzoil)aminopentanamide] | – | – | 2000 | suppressed the shrinkage of colon | suppressed the shrinkage of colon and the increase in intestine edema

Reference: US20050165112A1, “Therapeutic agent for inflammatory intestinal diseases containing hydroxamic acid compound as active ingredient” (priority 2002, published 2005)
